From patent publication US20230000940A1, “Composition for prevention or treatment of Porcine epidemic diarrhea virus infection comprising curcuminoid and licorice extracts or fraction thereof” (KOREA RESEARCH INSTITUTE OF BIOSCIENCE AND BIOTECHNOLOGY, priority 2019, published 2023)

Tests used:
IL-8 = experiment: Inhibitory effect on IL-8 in PED coronavirus-infected Vero cells; type: cell-based; details: 10 μM, vs virus-infected group
Method: To investigate the inhibitory effect of the complex on IL-8, which is a pro-inflammatory cytokine involved in promoting inflammation, virus infection was performed in the same manner as in Example 2-1, followed by treatment with the complex.

TNF-α = experiment: Inhibitory effect on TNF-α in PED coronavirus-infected Vero cells; type: cell-based; details: 10 μM, vs virus-infected group
Method: To investigate the inhibitory effect of the complex on TNF-α, which is a pro-inflammatory cytokine involved in promoting inflammation, virus infection was performed in the same manner as in Example 2-1, followed by treatment with the complex.

[1] = tested on: nucleoprotein (N protein) of the PED coronavirus; details: 10 μM, vs virus-infected group
Method: To investigate the target protein expression inhibitory effect of the complex on the nucleoprotein (N protein) of the PED coronavirus, Vero cells were infected with 0.001 MOI of PED coronavirus for 1 hour.

IL-6 = experiment: Inhibitory effect on IL-6 in PED coronavirus-infected Vero cells; type: cell-based; details: 10 μM, vs virus-infected group
Method: To investigate the inhibitory effect of the complex on IL-6, which is a pro-inflammatory cytokine involved in promoting inflammation, virus infection was performed in the same manner as in Example 2-1, followed by treatment with the complex.

PED coronavirus = details: component alone; statement without data; cited from earlier work

Row | Structure (SMILES) | inhibitory effect on IL-8 (IL-8) [fold] | inhibitory effect on TNF-α (TNF-α) [fold] | nucleoprotein synthesis inhibition (inhibitory effect) [1] [fold] | inhibitory effect on IL-6 (IL-6) [fold] | inhibitory effect against PED coronavirus (PED coronavirus)
1 | O=c1cnn([C@@H]2O[C@H](CO)[C@@H](O)[C@H]2O)c(=O)[nH]1 [6-azauridine] | 25.4 | 3.8 | 6.8 | 5.8 | 
2 | COc1cc(/C=C/C(=O)/C=C(O)/C=C/c2ccc(O)c(OC)c2)ccc1O [curcumin] |  |  |  |  | no inhibitory effect
